Measurements taken from patent US20140093960A1, “CELL DIFFERENTIATION INDUCER AND DIFFERENTIATION INDUCING METHOD” (The University of Tokushima, priority 2011, published 2014).

What was measured:
Type in all cases: cell-based
[1] = tested on: mouse ES cells (AB2-2); experiment: Induction of differentiation of mouse ES cell, change of morphology (Example 7(1)); settings: minimum concentration at which the change of the morphology was observed; embryoid bodies from mouse ES cells, 25 to 100 μM, cultured 4 days, hematoxylin staining
Description: The culture medium was added to a petri dish having a diameter of 60 mm. Further, 1 10^6 mouse ES cells (AB2-2) which were obtained from Dr. Alan Bradley in The Wellcome Trust Sanger Institute were added thereto, and incubated under 5% CO2 atmosphere at 37° C. for 1 day. Then, the cells were separated using a glass pipet and added to the same petri dish again, and incubated under 5% CO2 atmosphere at 37° C. for 3 days to form embryoid bodies.
Then, the above cultured cell dispersion (100 μL) was added to 96 well plate which was coated with collagen type 1, and was incubated under 5% CO2 atmosphere at 37° C. overnight. Separately, each examined compound was dissolved in a culture medium which was obtained by removing […] and a leukemia inhibitory factor from an ES culture medium and which was used for inducing a differentiation, and the solutions were added each well so that the final concentrations were 25 to 100 μM. As examined compounds, compounds which were synthesized by similar methods to Examples 1 to 6 in addition to the compounds synthesized in Examples 1 to 6 were used. […] In addition, fetal bovine serum was added at a final concentration of 5% and bFGF: basic fibroblast growth factor was added at a final concentration of 2 ng/mL to each well, and the cells were cultured in an adhesive state under 5% CO2 atmosphere at 37° C. for 4 days.
After the above culture, paraformaldehyde was added to each well at a final concentration of 2% to fix the cells. The cells were stained with hematoxylin, and the change of the morphology thereof was observed using an optical microscope. As control, only dimethylsulfoxide was added at a final concentration of 0.5% without adding the examined compound. […] In addition, the minimum concentrations of each examined compound at which the change of the morphology was observed are summarized in Table 2.

[2] = tested on: mouse ES cells (AB2-2); experiment: Combinational effect with retinoic acid, cell count (Example 9); settings: 4 days; for number of the nervous system cells: average of four experiments
Description: The culture medium was added to a petri dish having a diameter of 60 mm. Further, 1 10^6 mouse ES cells (AB2-2) which were obtained from Dr. Alan Bradley in The Wellcome Trust Sanger Institute were added thereto, and incubated under 5% CO2 atmosphere at 37° C. for 1 day. Then, the cells were separated using a glass pipet and added to the same petri dish again, and incubated under 5% CO2 atmosphere at 37° C. for 3 days to form embryoid bodies. […] Then, the above cultured cell dispersion ([…]) was added to 96 well plate which was coated with collagen type I, and was incubated under 5% CO2 atmosphere at 37° C. overnight. On the next day, the examined compound 5 only or with retinoic acid in combination in each final concentration of 10 nM was added thereto, and the cells were incubated in adhesive state under 5% CO2 atmosphere at 37° C. for 4 days. After the incubation, the cells were washed with PBS, and separated using 0.25% Trypsin. The number of the cells was counted. This experiment was carried out four times, and the average of the counted numbers was obtained. […] In the FIG. 7, “RA” represents retinoic acid.

[3] = tested on: mouse ES cells (AB2-2); experiment: Induction of differentiation of mouse ES cell, morphology (Example 10); settings: 50 μM, 4 days, hematoxylin staining, optical microscope
Description: A culture medium to induce an embryoid bodies used in Example 7 (4 mL) was added to a petri dish having a diameter of 60 mm. Further, 10^6 mouse ES cells (AB2-2) were added thereto, and incubated under 5% CO2 atmosphere at 37° C. for 3 days. The obtained embryoid was added into a […] volume tube. The above petri dish was washed by adding 1 PBS (5 mL), and the PBS was added into the above tube. The half quantity of the obtained cells was transferred to a separate tube, and the tube was stood still at room temperature for 5 minutes. After the supernatant was removed, an NP medium (10.5 mL) used in Example 7 was added. The cells were dispersed well, and the mixture was added to each well of a 96 well plate which was coated with collagen in an amount of 100 μL. The cells were incubated under 5% CO2 atmosphere at 37° C. overnight.
In DMSO, 3,4-dihydroxybenzonitrile (manufactured by Tokyo Chemical Industry Co., Ltd.) was dissolved. The solution was added to each well so that the total amount became 200 μL in a final concentration of 12.5 μM, 25 μM or […]. Further, blood serum and bFGF: basic fibroblast growth factor were added to each well respectively in final concentrations of 5% and 10 ng/mL, and the cells were cultured under 5% CO2 atmosphere at 37° C. for 4 days.
After the cultivation, 100 μL of the culture medium was removed from each well. […]

[4] = tested on: mouse ES cell; experiment: Gene expression analysis by RT-PCR (Example 7(3)); settings: mouse ES cell treated with 80 μM for 5 days
Description: Differentiation of a mouse ES cell was induced similarly to the above (1) except that the cell was treated with 80 μM of the examined compound 4 for 5 days. From the obtained cell, total RNA was extracted using TRIzol reagent. Using the total RNA, cDNA was synthesized by an ordinary method. A polymerase chain reaction was carried out using the synthesized cDNA as a template and each primer of Oct3/4▪Nanog—a marker of an undifferentiated cell, Nestin—a marker of a neural stem cell, Sox9▪Sox10▪Slug—a marker of a neural crest cell, GATA2—a marker of a mesoderm, Sca-1—a marker of a stem cell, and c-kit—a marker of a hematopoietic stem cell for analyzing the expression of each marker. In addition, for comparison, the expression was similarly analyzed with respect to an undifferentiated mouse ES cell and an embryoid body obtained by culturing a mouse ES cell for 3 days.

## O=C(O)[C@@H]1CSC(c2cccc(OCc3ccccc3)c2OCc2ccccc2)=N1 [examined compound 2, (R)-2-{2,3-Bis(benzyloxy)phenyl}-4,5-dihydrothiazole-4-carboxylic acid]
[1]
  Minimum effective concentration for morphology change: 100 μ M

## O=C(O)c1csc(-c2cccc(OCc3ccccc3)c2OCc2ccccc2)n1 [examined compound 1, 2-{2,3-Bis(benzyloxy)phenyl}thiazole-4-carboxylic acid]
[1]
  Minimum effective concentration for morphology change: 50 μ M

## COC(=O)c1cc(O)c(O)c(O)c1 [Example 5, Methyl 3,4,5-trihydroxybenzoate]
[2]; compound only, final concentration 10 nM
  number of the nervous system cells: 1.71±0.51 10^6
[2]; each final concentration 10 nM
  increase of the number of nervous system cells with retinoic acid in combination versus compound only: about 1.89 times
[2]; in combination with retinoic acid, each final concentration 10 nM
  number of the nervous system cells: 3.23±0.42 10^6

## N#Cc1ccc(O)c(O)c1 [3,4-dihydroxybenzonitrile]
[3]
  change of the cells' morphology: nervous system cells which had cell processes all around were observed

## 2-(2,3-Dihydroxyphenyl)thiazole-4-carboxylic acid [examined compound 3]
[4]
  Slug expression (marker of a neural crest cell): remarkably expressed
  Sox9 expression (marker of a neural crest cell): expressed
  Sox10 expression (marker of a neural crest cell): expressed
[1]
  Minimum inhibitory concentration: 70 μ M 70 μ M
